These results are taken from US20050026903A1, “CCK-1 receptor modulators” (priority 2003, published 2005).

One may read the melting point as the temperature, or range, at which the solid turns liquid.

The target of data set [1] is T1, CCK-1 receptor (Homo sapiens, UniProt P32238).
T1 construct: expressed in transfected cells; membranes
T1 sequence (P32238 1-428): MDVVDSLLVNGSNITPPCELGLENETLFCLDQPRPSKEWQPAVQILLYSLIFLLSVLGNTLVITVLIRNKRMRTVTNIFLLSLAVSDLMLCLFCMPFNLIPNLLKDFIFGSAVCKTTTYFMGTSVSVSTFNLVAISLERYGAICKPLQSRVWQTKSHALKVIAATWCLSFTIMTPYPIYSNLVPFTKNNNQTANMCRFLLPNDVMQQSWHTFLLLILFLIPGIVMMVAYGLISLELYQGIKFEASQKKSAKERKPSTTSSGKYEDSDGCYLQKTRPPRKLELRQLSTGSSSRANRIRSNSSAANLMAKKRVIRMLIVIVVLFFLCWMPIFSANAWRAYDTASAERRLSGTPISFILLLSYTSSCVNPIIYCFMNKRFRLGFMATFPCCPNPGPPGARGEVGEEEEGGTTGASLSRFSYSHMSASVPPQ
Briefly: CCK-1 receptor radioligand binding assay ([125I]-BH-CCK-8S competition, membranes of stably transfected CHO-K1 cells). The protocol:
CHO-K1 cells that had undergone stable transfection with the CCK-1 receptor were grown in DMEM supplemented with L-glutamine (2 mM), penicillin (50 units/mL) and streptomycin (50 μg/mL). Cells were cultured under continuous G418 selection (2 mM) and were harvested using a rubber cell scraper. CHO-K1 cells were sub-cultured a maximum of ten times before being reseeded from the original stocks.
Membranes were prepared from the stably transfected CHO-K1 cells. Frozen cell pellets (−40° C.) were thawed in 14 mL of buffer A (10 mM HEPES, 130 mM NaCl, 4.7 mM KCl, 5 mM MgCl, 1 mM EGTA and 15.4 mg/100 mL bacitracin at pH 7.2), adapted from Harper et al. (Br. J. Pharmacol. (1996) 118, pp 1717-1726). The thawed pellets were homogenized using a Polytron PT-10 (7×1 s). […]
All assays were conducted in 96-well plates (GF/B millipore filter plates) using buffer A, with 0.3 μM PD-134,308, for the dilutions. […] Total binding of [125I]—BH—CCK-8S was determined in the presence of 15 μL of buffer A. Non-specific binding of [125I]—BH—CCK-8S was determined in the presence of 15 μL of 100 μM 2-naphthalenesulphonyl L-aspartyl-(2-phenethyl)amide (2-NAP: see R. A. Hull et al., Br. J. Pharmacol. (1993) 108, pp 734-740), a CCK-1 receptor selective antagonist that is structurally unrelated to the radioligand [125I]—BH—CCK-8S. […] Bound radioactivity was determined using a gamma counter (count time=1 min). […]

Structures can show the parent of a compound that is named as a salt. Where two headings read alike, the source gives them in different places.

Compound `COc1ccc(-n2nc(C[C@H](C([O])=O)c3cccc(C)c3)cc2-c2ccc(Cl)c(Cl)c2)cc1` (as salt: sodium) [Example 1, (S)-Sodium; 3-[5-(3,4-dichloro-phenyl)-1-(4-methoxy-phenyl)-1H-pyrazol-3-yl]-2-m-tolyl-propionate] yielded a melting point of 295.5 to 297.5 °C.

Turning to `COc1ccc(-n2nc(C[C@H](C([O])=O)c3cccc(C)c3)cc2-c2ccc(Cl)c(Cl)c2)cc1` [Example 1, (S)-Sodium; 3-[5-(3,4-dichloro-phenyl)-1-(4-methoxy-phenyl)-1H-pyrazol-3-yl]-2-m-tolyl-propionate], the Ki in data set [1] is 10 nM. Regarding `COc1ccc(-n2nc(CC(C(=O)O)c3cccc4ccccc34)cc2-c2ccc3c(c2)OCO3)cc1` (racemic) [Example 27, 3-[5-Benzo[1,3]dioxol-5-yl-1-(4-methoxy-phenyl)-1H-pyrazol-3-yl]-2-naphthalen-1-yl-propionic acid], in data set [1] ([125I]-BH-CCK-8S competition, membranes of CHO-K1 cells stably transfected with CCK-1 receptor, 0.3 μM PD-134,308 present, read-out: pKi (converted)), the Ki is 6.31 nM.
